# Source: US20250320184A1 (SIRONAX LTD., priority 2022, published 2025)
# Biological target: T1, SARM1 (50-724) (Homo sapiens, UniProt Q6SZW1)
# T1 sequence (Q6SZW1 50-724): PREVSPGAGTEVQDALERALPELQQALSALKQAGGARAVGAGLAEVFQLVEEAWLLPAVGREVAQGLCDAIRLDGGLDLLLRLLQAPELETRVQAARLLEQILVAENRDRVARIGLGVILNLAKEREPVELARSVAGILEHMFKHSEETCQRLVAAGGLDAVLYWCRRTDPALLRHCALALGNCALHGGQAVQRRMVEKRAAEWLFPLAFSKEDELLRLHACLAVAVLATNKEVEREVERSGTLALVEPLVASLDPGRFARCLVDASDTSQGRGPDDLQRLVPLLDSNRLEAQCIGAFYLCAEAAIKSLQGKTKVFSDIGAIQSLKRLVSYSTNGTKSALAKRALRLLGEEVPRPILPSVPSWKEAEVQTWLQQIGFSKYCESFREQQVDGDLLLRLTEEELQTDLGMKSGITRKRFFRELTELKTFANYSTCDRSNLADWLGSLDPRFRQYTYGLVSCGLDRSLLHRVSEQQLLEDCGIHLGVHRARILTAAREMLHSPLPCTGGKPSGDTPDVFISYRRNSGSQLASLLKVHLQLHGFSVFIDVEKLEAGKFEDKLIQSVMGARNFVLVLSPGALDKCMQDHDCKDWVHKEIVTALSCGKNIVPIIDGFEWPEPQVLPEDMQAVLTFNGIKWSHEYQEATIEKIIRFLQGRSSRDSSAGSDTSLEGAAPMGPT
# Experiment: biochemical
# Procedure: An enzymatic assay was performed in a 384-well plate using Dulbecco's phosphate-buffered saline (PBS) as the reaction buffer. […] The reaction was initiated by adding a mixture of 200 μM nicotinamide mononucleotide (NMN) as activator and 100 μM NAD^+ as substrate. After 1 h of incubation at room temperature, the reaction was terminated with 10 times volume of 70% acetonitrile, then centrifuged at 3800 rpm for 10 min.
row,IC50 [nM],SMILES
1,< 100,"Cc1cn(CC(N)=O)c(=O)c2nc(NC(C)c3nn(C)c(Cl)c3Cl)ccc12 (racemic) [Compound 324, 2-(2-((1-(4,5-dichloro-1-methyl-1H-pyrazol-3-yl)ethyl)amino)-5-methyl-8-oxo-1,7-naphthyridin-7(8H)-yl)acetamide]"
2,< 100,"CC(Nc1ccc2cc[nH]c(=O)c2c1)c1nn(C)c(C(F)F)c1Cl (racemic) [Compound 325, 7-((1-(4-chloro-5-(difluoromethyl)-1-methyl-1H-pyazol-3-yl)ethyl)amino)isoquinolin-1(2H)-one]"
3,< 100,"Cc1c2ccc(NC(C)c3nc(Cl)c(Cl)s3)cc2nn1C1CCOCC1 (racemic) [Compound 327, N-(1-(4,5-dichlorothiazol-2-yl)ethyl)-3-methyl-2-(tetrahydro-2H-pyran-4-yl)-2H-indazol-6-amine]"
4,< 100,"CC(Nc1cc(F)c2c(c1)C(=O)N(CC(N)=O)C2(C)C)c1nc(Cl)c(Cl)s1 (racemic) [Compound 328, 2-(5-((1-(4,5-dichlorothiazol-2-yl)ethyl)amino)-7-fluoro-1,1-dimethyl-3-oxoisoindolin-2-yl)acetamide]"
5,< 100,"CC1N(C(=O)CC(N)=O)c2cc(NS(=O)(=O)c3cccc(Cl)c3Cl)ccc2C1(C)C (racemic) [Compound 329, 3-(6-((2,3-dichlorophenyl)sulfonamido)-2,3,3-trimethylindolin-1-yl)-3-oxopropanamide]"
6,< 100,"Cc1nn(CC(N)=O)c(=O)c2nc(NC(C)c3nn(C)c(Cl)c3Cl)ccc12 (racemic) [Compound 330, 2-(2-((1-(4,5-dichloro-1-methyl-1H-pyrazol-3-yl)ethyl)amino)-5-methyl-8-oxopyrido[2,3-d]pyridazin-7(8H)-yl)acetamide]"
7,< 100,"Cc1nn(C(=O)c2ccncc2)c2cc(NC(C)c3nc(Cl)c(Cl)s3)ccc12 (racemic) [Compound 331, (6-((1-(4,5-dichlorothiazol-2-yl)ethyl)amino)-3-methyl-1H-indazol-1-yl)(pyridin-4-yl)methanone]"
8,< 100,"Cc1nn(CC(N)=O)c2cc(NC(C)c3nc(Cl)c(Cl)s3)cc(F)c12 (racemic) [Compound 337, 2-(6-((1-(4,5-dichlorothiazol-2-yl)ethyl)amino)-4-fluoro-3-methyl-1H-indazol-1-yl)acetamide]"
9,< 100,"CC(Nc1cc(F)c2nc[nH]c(=O)c2c1)c1nsc(Cl)c1Cl (racemic) [Compound 338, 6-((1-(4,5-dichloroisothiazol-3-yl)ethyl)amino)-8-fluoroquinazolin-4(3H)-one]"
10,< 100,"Cc1c2ccc(NC(C)c3snc(Cl)c3Cl)cc2nn1CC(N)=O (racemic) [Compound 341, 2-(6-((1-(3,4-dichloroisothiazol-5-yl)ethyl)amino)-3-methyl-2H-indazol-2-yl)acetamide]"
11,< 100,"Cc1n[nH]c(=O)c2cc(NC(C)c3scc(Cl)c3Cl)ccc12 (racemic) [Compound 342, 7-((1-(3,4-dichlorothiophen-2-yl)ethyl)amino)-4-methylphthalazin-1(2H)-one]"
12,< 100,"Cc1nc(C(C)Nc2ccc3c(C)n(CC(N)=O)nc3c2)sc1Cl (racemic) [Compound 343, 2-(6-((1-(5-chloro-4-methylthiazol-2-yl)ethyl)amino)-3-methyl-2H-indazol-2-yl)acetamide]"
13,< 100,"CC(Nc1nc2ccccc2s1)c1nc(Cl)c(Cl)s1 (racemic) [Compound 344, N-(1-(4,5-dichlorothiazol-2-yl)ethyl)benzo[d]thiazol-2-amine]"
14,< 100,"CC(Nc1ccc2snc(C(N)=O)c2c1)c1nc(Cl)c(Cl)s1 (racemic) [Compound 345, 5-[1-(4,5-dichlorothiazol-2-yl)ethylamino]-1,2-benzothiazole-3-carboxamide]"
15,< 100,"CC(Nc1ccc2snc(C(=O)N3CC(O)C3)c2c1)c1nc(Cl)c(Cl)s1 (racemic) [Compound 346, (5-((1-(4,5-dichlorothiazol-2-yl)ethyl)amino)benzo[d]isothiazol-3-yl)(3-hydroxyazetidin-1-yl)methanone]"
16,< 100,"CC(Nc1ccc2nc[nH]c(=O)c2n1)c1c(F)ccc(Cl)c1Cl (racemic) [Compound 349, 6-((1-(2,3-dichloro-6-fluorophenyl)ethyl)amino)pyrido[3,2-d]pyrimidin-4(3H)-one]"
17,100 to 500,"Cc1c(C#N)sc(C(C)Nc2ccc3c(C)n[nH]c(=O)c3c2)c1Cl (racemic) [Compound 350, 4-chloro-3-methyl-5-(1-((1-methyl-4-oxo-3,4-dihydrophthalazin-6-yl)amino)ethyl)thiophene-2-carbonitrile]"
18,< 100,"CC(Nc1cc(F)c2ncn(CC(N)=O)c(=O)c2c1)c1ccc(F)c(Cl)c1Cl (racemic) [Compound 351, 2-(6-((1-(2,3-dichloro-4-fluorophenyl)ethyl)amino)-8-fluoro-4-oxoquinazolin-3(4H)-yl)acetamide]"

row,IC50 [nM],SMILES
1,< 100,"CC(Nc1cc(F)c2nc[nH]c(=O)c2c1)c1nccc(Cl)c1Cl (racemic) [Compound 352, 6-((1-(3,4-dichloropyridin-2-yl)ethyl)amino)-8-fluoroquinazolin-4(3H)-one]"
2,< 100,"CC(Nc1ccc2cc[nH]c(=O)c2c1)c1csc(Cl)c1Cl (racemic) [Compound 353, 7-((1-(4,5-dichlorothiophen-3-yl)ethyl)amino)isoquinolin-1(2H)-one]"
3,< 100,"CC(Nc1cc(F)c2nc[nH]c(=O)c2c1)c1cncc(Cl)c1Cl (racemic) [Compound 354, 6-((1-(4,5-dichloropyridin-3-yl)ethyl)amino)-8-fluoroquinazolin-4(3H)-one]"
4,< 100,"CC(Nc1ccc2c(C(F)F)n(CC(N)=O)nc2c1)c1nc(Cl)c(Cl)s1 (racemic) [Compound 355, 2-(6-((1-(4,5-dichlorothiazol-2-yl)ethyl)amino)-3-(difluoromethyl)-2H-indazol-2-yl)acetamide]"
5,< 100,"CC(Nc1ccc2c(Cl)n(CC(N)=O)nc2c1)c1nc(Cl)c(Cl)s1 (racemic) [Compound 361, 2-(3-chloro-6-((1-(4,5-dichlorothiazol-2-yl)ethyl)amino)-2H-indazol-2-yl)acetamide]"
6,< 100,"Cc1c2c(F)cc(NC(C)c3c(F)ccc(Cl)c3Cl)cc2nn1CC(N)=O (racemic) [Compound 364, 2-(6-((1-(2,3-dichloro-6-fluorophenyl)ethyl)amino)-4-fluoro-3-methyl-2H-indazol-2-yl)acetamide]"
7,< 100,"CC(Nc1ccc2c(C(F)F)n(CC(N)=O)nc2c1)c1c(F)ccc(Cl)c1Cl (racemic) [Compound 365, 2-(6-((1-(2,3-dichloro-6-fluorophenyl)ethyl)amino)-3-(difluoromethyl)-2H-indazol-2-yl)acetamide]"
8,< 100,"CC(Nc1ccc2c(C(F)(F)F)n(CC(N)=O)nc2c1)c1nc(Cl)c(Cl)s1 (racemic) [Compound 366, 2-(6-((1-(4,5-dichlorothiazol-2-yl)ethyl)amino)-3-(trifluoromethyl)-2H-indazol-2-yl)acetamide]"
9,< 100,"[2H]C(C)(Nc1ccc2c(C)n(CC(N)=O)nc2c1)c1nc(Cl)c(Cl)s1 (racemic) [Compound 376, 2-(6-((1-(4,5-dichlorothiazol-2-yl)ethyl-1-d)amino)-3-methyl-2H-indazol-2-yl)acetamide]"
10,< 100,"Cc1sc(C(C)Nc2ccc3c(C)n(CC(N)=O)nc3c2)nc1Cl (racemic) [Compound 379, 2-(6-((1-(4-chloro-5-methylthiazol-2-yl)ethyl)amino)-3-methyl-2H-indazol-2-yl)acetamide]"
11,100 to 500,"CC(Nc1ccc2nc[nH]c(=O)c2n1)c1ccc(F)c(Cl)c1Cl (racemic) [Compound 384, 6-((1-(2,3-dichloro-4-fluorophenyl)ethyl)amino)pyrido[3,2-d]pyrimidin-4(3H)-one]"
12,< 100,"Cc1c2c(F)cc(NC(C)c3nc(Cl)c(Cl)s3)cc2nn1CC(N)=O (racemic) [Compound 389, 2-(6-((1-(4,5-dichlorothiazol-2-yl)ethyl)amino)-4-fluoro-3-methyl-2H-indazol-2-yl)acetamide]"
13,500 to 1000,"Cc1cc(F)cc(C(C)Nc2ccc3c(c2)C(=O)NCC3)c1 (racemic) [Example 93, 7-((1-(3-fluoro-5-methylphenyl)ethyl)amino)-3,4-dihydroisoquinolin-1(2H)-one]"
14,> 1000,"CC(Nc1ccc2c(c1)C(=O)NCC2)c1ccc(Cl)c(F)c1 (racemic) [Example 96, 7-((1-(4-chloro-3-fluorophenyl)ethyl)amino)-3,4-dihydroisoquinolin-1(2H)-one]"
15,500 to 1000,"CC(Nc1ccc2c(c1)C(=O)NCC2)c1cc(Cl)cc(Cl)n1 (racemic) [Example 97, 7-((1-(4,6-dichloropyridin-2-yl)ethyl)amino)-3,4-dihydroisoquinolin-1(2H)-one]"
16,> 1000,"CC(Nc1ccc2c(c1)C(=O)NCC2)c1cc(Cl)nc(Cl)c1 (racemic) [Example 98, 7-((1-(2,6-dichloropyridin-4-yl)ethyl)amino)-3,4-dihydroisoquinolin-1(2H)-one]"
17,> 1000,"Cc1cccc(C(C)Nc2ccc3c(c2)C(=O)NCC3)c1F (racemic) [Example 99, 7-((1-(2-fluoro-3-methylphenyl)ethyl)amino)-3,4-dihydroisoquinolin-1(2H)-one]"
